Where a name gives a salt, the structure may show the parent alone.
Key:
[1] = target: T1, α4β1 integrin (Jurkat T-cell adhesion to IL-1 stimulated endothelial cell monolayers) (Homo sapiens, UniProt P05556+P13612); test: Jurkat-endothelial cell adhesion assay (Jurkat EC); format: cell-based; settings: Jurkat cells on IL-1 stimulated human umbilical vein endothelial cells; read-out: JK/EC (Jurkat EC Assay IC50 value range)
T1 construct: a T-cell line, Jurkat, known to express the α4β1 integrin; host or cells: Jurkat T-cell line
Summary of the method: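 Adhesion was expressed as percent of compound-free fluorescence after 20 min at 37° C (following 5 min settling on ice) of BCECF-loaded Jurkat T cells on washed HUVEC monolayers. The endothelium, passage 6 or lower, had received 0.1 ng/ml recombinant IL-1 for 4 hr at 37° C; compound was premixed with the T cells, typically at 100, 20, 5 and 1.25 μM.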

[2] = target: T2, α4β1 integrin (Jurkat cell adhesion to immobilized CS-1 derived peptide CLHPGEILDVPST) (Homo sapiens, UniProt P05556+P13612); test: Jurkat-CS-1 assay; format: cell-based; settings: Jurkat cells on CS-1 peptide coated plates; read-out: JK/CS-1 (Jurkat CS-1 Assay IC50 value range)
T2 construct: 100 μl of Jurkat cells (2.5×10^6 cells/ml) in DMEM plus BSA; host or cells: Jurkat T-cell line
Summary of the method: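 CS-1 peptide was SPDP-crosslinked onto HSA-coated plates and blocked with BSA. Jurkat cells (2.5×10^6 cells/ml) in DMEM/BSA were mixed with compound, generally at 100, 20, 5 and 1.25 μM, and allowed to adhere for 1 hr at 37° C. Bound cells were fixed, stained with toluidine blue and quantified by OD590.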

T1 sequence (P13612 34-1032): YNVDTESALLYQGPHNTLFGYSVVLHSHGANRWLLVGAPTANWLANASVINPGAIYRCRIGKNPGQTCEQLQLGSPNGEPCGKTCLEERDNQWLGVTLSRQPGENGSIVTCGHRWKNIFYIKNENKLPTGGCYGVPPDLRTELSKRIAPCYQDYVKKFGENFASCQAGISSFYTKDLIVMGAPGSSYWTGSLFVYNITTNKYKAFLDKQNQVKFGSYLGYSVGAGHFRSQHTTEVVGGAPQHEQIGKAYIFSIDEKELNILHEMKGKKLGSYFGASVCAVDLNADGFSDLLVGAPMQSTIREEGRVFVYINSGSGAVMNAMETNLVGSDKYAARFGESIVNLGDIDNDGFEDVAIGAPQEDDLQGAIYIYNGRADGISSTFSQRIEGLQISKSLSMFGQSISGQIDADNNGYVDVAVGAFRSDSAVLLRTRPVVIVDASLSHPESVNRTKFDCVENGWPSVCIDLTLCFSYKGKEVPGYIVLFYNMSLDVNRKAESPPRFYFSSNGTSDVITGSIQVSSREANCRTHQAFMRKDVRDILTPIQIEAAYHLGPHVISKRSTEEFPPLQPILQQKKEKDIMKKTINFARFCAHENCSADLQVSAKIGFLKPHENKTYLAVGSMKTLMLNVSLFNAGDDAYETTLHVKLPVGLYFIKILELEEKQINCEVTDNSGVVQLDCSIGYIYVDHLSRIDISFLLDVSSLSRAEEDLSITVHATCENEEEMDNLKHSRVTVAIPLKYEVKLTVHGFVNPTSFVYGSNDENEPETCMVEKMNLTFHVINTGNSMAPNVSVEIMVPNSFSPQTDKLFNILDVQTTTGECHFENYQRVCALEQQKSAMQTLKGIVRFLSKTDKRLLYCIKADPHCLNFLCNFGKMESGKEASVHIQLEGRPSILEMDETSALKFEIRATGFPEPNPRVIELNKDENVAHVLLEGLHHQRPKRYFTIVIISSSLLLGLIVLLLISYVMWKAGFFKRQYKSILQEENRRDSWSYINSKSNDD
T1 sequence (P05556 21-798): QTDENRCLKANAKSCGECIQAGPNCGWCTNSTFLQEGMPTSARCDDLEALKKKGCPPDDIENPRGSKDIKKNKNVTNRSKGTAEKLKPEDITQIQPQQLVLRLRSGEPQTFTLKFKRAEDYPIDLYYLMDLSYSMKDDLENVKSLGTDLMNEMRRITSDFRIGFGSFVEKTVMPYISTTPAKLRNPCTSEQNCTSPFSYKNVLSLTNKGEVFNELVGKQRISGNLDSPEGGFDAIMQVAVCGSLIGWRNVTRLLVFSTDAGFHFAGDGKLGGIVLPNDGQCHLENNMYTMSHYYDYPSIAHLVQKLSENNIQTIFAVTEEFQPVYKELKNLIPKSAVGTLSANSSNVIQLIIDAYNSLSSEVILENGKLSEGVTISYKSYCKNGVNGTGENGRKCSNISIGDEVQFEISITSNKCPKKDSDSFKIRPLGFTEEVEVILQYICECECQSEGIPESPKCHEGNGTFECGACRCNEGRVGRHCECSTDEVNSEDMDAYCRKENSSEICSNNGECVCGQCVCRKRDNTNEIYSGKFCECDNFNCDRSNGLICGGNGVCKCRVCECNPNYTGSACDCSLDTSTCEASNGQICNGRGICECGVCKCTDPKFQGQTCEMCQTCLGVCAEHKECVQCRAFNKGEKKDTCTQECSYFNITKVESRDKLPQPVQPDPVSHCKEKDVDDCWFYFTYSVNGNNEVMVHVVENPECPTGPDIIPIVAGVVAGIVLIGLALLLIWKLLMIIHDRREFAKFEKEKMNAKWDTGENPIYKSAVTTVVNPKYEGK
T2 sequence (P13612 34-1032): as the sequence (P13612 34-1032) above
T2 sequence (P05556 21-798): as the sequence (P05556 21-798) above

| Structure (SMILES) | IC50 [1] | IC50 [2] |
| --- | --- | --- |
| O=C(O)CCC(=O)N1CCSCC1C(=O)N[C@@H](Cc1ccc(OCc2c(Cl)cccc2Cl)cc1)C(=O)O (stereo in doubt) [Example 105, [R-(R*,S*)]-3-[[[1-Carboxy-2-[4-[(2,6-dichlorophenyl)methoxy]phenyl]ethyl]amino]carbonyl]-γ-oxo-4-thiomorpholinebutanoic Acid] | ≥ 1000 nM | 50 to 750 nM |
| COC(=O)[C@H](Cc1ccc(NC(=O)c2c(Cl)cccc2Cl)cc1)NC(=O)[C@H]1CSCN1S(C)(=O)=O [Example 2, 4-[(2,6-Dichlorobenzoyl)amino]-N-[[(4S)-3-(methylsulfonyl)-4-thiazolidinyl]carbonyl]-L-phenylalanine Methyl Ester] | ≤ 250 nM | 50 to 750 nM |
| CS(=O)(=O)N1CSC[C@@H]1C(=O)N[C@@H](Cc1ccc(NC(=O)c2c(Cl)cccc2Cl)cc1)C(=O)O [Example 3, 4-[(2,6-Dichlorobenzoyl)amino]-N-[[(4S)-3-(methylsulfonyl)-4-thiazolidinyl]carbonyl]-L-phenylalanine] | ≤ 250 nM | ≤ 50 nM |
| COC(=O)[C@H](Cc1ccc(NC(=O)c2c(Cl)cccc2Cl)cc1)NC(=O)[C@H]1CSCN1C(=O)NC(C)(C)C [Example 6, 4-[(2,6-Dichlorobenzoyl)amino]-N-[[(4S)-3-[((1,1-dimethylethyl)amino)carbonyl]-4-thiazolidinyl]carbonyl]-L-phenylalanine Methyl Ester] | ≥ 1000 nM | ≥ 750 nM |
| O=C(Nc1ccc(C[C@H](NC(=O)[C@H]2CSCN2)C(=O)O)cc1)c1c(Cl)cccc1Cl [Example 11, 4-[(2,6-Dichlorobenzoyl)amino]-N-[[(4S)-4-thiazolidinyl]carbonyl]-L-phenylalanine Monohydrochloride Salt] | ≥ 1000 nM | 50 to 750 nM |
| COC(=O)[C@H](Cc1ccc(NC(=O)c2c(Cl)cccc2Cl)cc1)NC(=O)[C@H]1CSCN1S(=O)(=O)c1ccc(C(F)(F)F)cn1 [Example 44, 4-[(2,6-Dichlorobenzoyl)amino]-N-[[(4S)-3-[[5-(trifluoromethyl)-2-pyridinyl]sulfonyl]-4-thiazolidinyl]carbonyl]-L-phenylalanine Methyl Ester] | ≥ 1000 nM | ≥ 750 nM |
| COC(=O)[C@H](Cc1ccc(NC(=O)c2c(Cl)cccc2Cl)cc1)NC(=O)[C@H]1CSCN1S(=O)(=O)c1ccccc1 [Example 46, 4-[(2,6-Dichlorobenzoyl)amino]-N-[[(4S)-3-(phenylsulfonyl)-4-thiazolidinyl]carbonyl]-L-phenylalanine Methyl Ester] | ≥ 1000 nM | ≥ 750 nM |
| O=C(Nc1ccc(C[C@H](NC(=O)[C@H]2CSCN2S(=O)(=O)c2ccccc2)C(=O)O)cc1)c1c(Cl)cccc1Cl [Example 47] | ≤ 250 nM | ≤ 50 nM |
| COC(=O)[C@H](Cc1ccc(NC(=O)c2c(Cl)cccc2Cl)cc1)NC(=O)[C@H]1CSCN1S(=O)(=O)c1cccc2c(N(C)C)cccc12 [Example 48, 4-[(2,6-Dichlorobenzoyl)amino]-N-[[(4S)-3-[[5-(dimethylamino)-1-naphthalenyl]sulfonyl]-4-thiazolidinyl]carbonyl]-L-phenylalanine Methyl Ester] | ≥ 1000 nM | ≥ 750 nM |
| CN(C)c1cccc2c(S(=O)(=O)N3CSC[C@@H]3C(=O)N[C@@H](Cc3ccc(NC(=O)c4c(Cl)cccc4Cl)cc3)C(=O)O)cccc12 [Example 49, 4-[(2,6-Dichlorobenzoyl)amino]-N-[[(4S)-3-[[5-(dimethylamino)-1-naphthalenyl]sulfonyl]-4-thiazolidinyl]carbonyl]-L-phenylalanine] | ≥ 1000 nM | ≥ 750 nM |
| COC(=O)[C@H](Cc1ccc(OCc2c(Cl)cccc2Cl)cc1)NC(=O)[C@H]1CSCN1S(C)(=O)=O [Example 50, O-[(2,6-Dichlorophenyl)methyl]-N-[[(4S)-3-(methylsulfonyl)-4-thiazolidinyl]carbonyl]-L-tyrosine Methyl Ester] | ≥ 1000 nM | 50 to 750 nM |
| CC(C)(C)NC(=O)N1CSC[C@@H]1C(=O)N[C@@H](Cc1ccc(NC(=O)c2c(Cl)cccc2Cl)cc1)C(=O)O [Example 52, 4-[(2,6-Dichlorobenzoyl)amino]-N-[[(4S)-3-[[(1,1-dimethylethyl)amino]carbonyl]-4-thiazolidinyl]carbonyl]-L-phenylalanine] | ≤ 250 nM | 50 to 750 nM |
| O=C(Nc1ccc(C[C@H](NC(=O)[C@H]2CSCN2C(=O)N(CCO)CCO)C(=O)O)cc1)c1c(Cl)cccc1Cl [Example 58, N-[[(4S)-3-[[bis(2-Hydroxyethyl)amino]carbonyl]thiazoldinyl]carbonyl]-4-[(2,6-dichlorobenzoyl)amino]-L-phenylalanine] | ≤ 250 nM | ≤ 50 nM |
| COC(=O)[C@H](Cc1ccc(NC(=O)c2c(Cl)cccc2Cl)cc1)NC(=O)[C@H]1CSCN1C(C)=O [Example 61, N-[[(4S)-3-Acetyl-4-thiazolidinyl]carbonyl]-4-[(2,6-dichlorobenzoyl)amino]-L-phenylalanine Methyl Ester] | 250 to 1000 nM | 50 to 750 nM |
| CC(=O)N1CSC[C@@H]1C(=O)N[C@@H](Cc1ccc(NC(=O)c2c(Cl)cccc2Cl)cc1)C(=O)O [Example 62, N-[[(4S)-3-Acetyl-4-thiazolidinyl]carbonyl]-4-[(2,6-dichlorobenzoyl)amino]-L-phenylalanine] | ≤ 250 nM | ≤ 50 nM |
| COC(=O)[C@H](Cc1ccc(OCc2c(Cl)cccc2Cl)cc1)NC(=O)[C@H]1CSCN1C(C)=O [Example 65, N-[[(4S)-3-Acetyl-4-thiazolidinyl]carbonyl]-O-[(2,6-dichlorophenyl)methyl]-L-tyrosine Methyl Ester] | ≥ 1000 nM | 50 to 750 nM |
| COC(=O)[C@H](Cc1ccc(NC(=O)c2c(Cl)cccc2Cl)cc1)NC(=O)[C@@H]1CSCN1C(C)=O [Example 69, N-[[(4R)-3-Acetyl-4-thiazolidinyl]carbonyl]-4-[(2,6-dichlorobenzoyl)amino]-L-phenylalanine Methyl Ester] | ≥ 1000 nM | ≥ 750 nM |
| CC(=O)N1CSC[C@H]1C(=O)N[C@@H](Cc1ccc(NC(=O)c2c(Cl)cccc2Cl)cc1)C(=O)O [Example 70, N-[[(4R)-3-Acetyl-4-thiazolidinyl]carbonyl]-4[(2,6-dichlorobenzoyl)amino]-L-phenylalanine] | 250 to 1000 nM | ≤ 50 nM |
| O=C(Nc1ccc(C[C@H](NC(=O)[C@@H]2CSCN2)C(=O)O)cc1)c1c(Cl)cccc1Cl [Example 71, 4-[(2,6-Dichlorobenzoyl)amino]-N-[[(4R)-4-thiazolidinyl]carbonyl]-L-phenylalanine Monohydrochloride Salt] | ≥ 1000 nM | ≥ 750 nM |

Second part, the compound after the results:

| IC50 [1] | IC50 [2] | Structure (SMILES) |
| --- | --- | --- |
| ≥ 1000 nM | 50 to 750 nM | CCN(CC)C(=O)N1CSC[C@@H]1C(=O)N[C@@H](Cc1ccc(NC(=O)c2c(Cl)cccc2Cl)cc1)C(=O)OC [Example 7, 4-[(2,6-Dichlorobenzoyl)amino]-N-[[(4S)-3-[(diethylamino)carbonyl]-4-thiazolidinyl]carbonyl]-L-phenylalanine Methyl Ester] |
| 250 to 1000 nM | 50 to 750 nM | CCS(=O)(=O)N1CSC[C@@H]1C(=O)N[C@@H](Cc1ccc(NC(=O)c2c(Cl)cccc2Cl)cc1)C(=O)OC [Example 42] |
| ≤ 250 nM | ≤ 50 nM | CCS(=O)(=O)N1CSC[C@@H]1C(=O)N[C@@H](Cc1ccc(NC(=O)c2c(Cl)cccc2Cl)cc1)C(=O)O [Example 43] |
| 250 to 1000 nM | 50 to 750 nM | O=C(Nc1ccc(C[C@H](NC(=O)[C@H]2CSCN2S(=O)(=O)c2ccc(C(F)(F)F)cn2)C(=O)O)cc1)c1c(Cl)cccc1Cl [Example 45] |
| 250 to 1000 nM | 50 to 750 nM | CS(=O)(=O)N1CSC[C@@H]1C(=O)N[C@@H](Cc1ccc(OCc2c(Cl)cccc2Cl)cc1)C(=O)O [Example 51, O-[(2,6-Dichlorophenyl)methyl]-N-[[(4S)-3-(methylsulfonyl)-4-thiazolidinyl]carbonyl]-L-tyrosine] |
| ≤ 250 nM | ≤ 50 nM | CCN(CC)C(=O)N1CSC[C@@H]1C(=O)N[C@@H](Cc1ccc(NC(=O)c2c(Cl)cccc2Cl)cc1)C(=O)O [Example 53, 4-[(2,6-Dichlorobenzoyl)amino]-N-[[(4S)-3-[(diethylamino)carbonyl]-4-thiazolidinyl]carbonyl]-L-phenylalanine] |
| ≤ 250 nM | ≤ 50 nM | CN(CCc1ccccn1)C(=O)N1CSC[C@@H]1C(=O)N[C@@H](Cc1ccc(NC(=O)c2c(Cl)cccc2Cl)cc1)C(=O)O [Example 55, 4-[(2,6-Dichlorobenzoyl)amino]-N-[[(4S)-3-[[methyl[2-(2-pyridinyl)ethyl]amino]carbonyl]-4-thiazolidinyl]carbonyl]-L-phenylalanine] |
| ≤ 250 nM | 50 to 750 nM | CC(=O)N1CSC[C@@H]1C(=O)N[C@@H](Cc1ccc(OCc2c(Cl)cccc2Cl)cc1)C(=O)O [Example 66, N-[[(4S)-3-Acetyl-4-thiazolidinyl]carbonyl]-O-[(2,6-dichlorophenyl)methyl]-L-tyrosine] |
| 250 to 1000 nM | 50 to 750 nM | CC1(C)N[C@H](C(=O)N[C@@H](Cc2ccc(NC(=O)c3c(Cl)cccc3Cl)cc2)C(=O)O)CS1 [Example 74, 4-[(2,6-Dichlorobenzoyl)amino]-N-[[(4R)-2,2-dimethyl-4-thiazolidinyl]carbonyl]-L-phenylalanine] |

Reference: US6685617B1, “Inhibitors of α4β1 mediated cell adhesion” (Pharmacia & Upjohn Company, priority 1998, dated 2004)
